Test results as given in ChEMBL document CHEMBL6087385, “Synthesis and biological evaluation of Ribo 7-N/O/S pyrimidine 9-deaza C-nucleoside analogs as new antiviral agents for inhibiting HCV RNA-dependent RNA polymerases” (Eur J Med Chem, 2024).
pEC50, pIC50: −log10 of the molar value. Values belong to the molecule of their own block, whether it stands above or below them. Active and inactive are the calls of the source. No cut-off for these calls is given here.

Experiments:
[1] = tested on: Hepatitis C virus; assay: Antiviral activity against Hepatitis C virus infected in Ava5 cells assessed as inhibition of viral RNA replication incubated for 72 hrs by RT-PCR analysis; format: functional, organism-based; conditions: for Activity: Hepacivirus hominis
[2] = tested on: Hepatitis C virus; assay: Antiviral activity against HCV infected in human Huh-7 cells assessed as inhibition of viral RNA replication incubated for 24 hrs by ribonuclease protection assay; format: functional, organism-based, Hepacivirus hominis; conditions: Huh-7, 24 h
[3] = tested on: Hepatitis C virus; assay: Antiviral activity against HCV genotype 1a infected in GLuc-1 cells; format: functional, organism-based, Hepacivirus hominis
[4] = tested on: Hepatitis C virus; assay: Anti-viral activity against HCV genotype 1b infected in human Huh-luc cells; format: functional, organism-based, Hepacivirus hominis
[5] = tested on: Hepatitis C virus; assay: Anti-viral activity against HCV genotype 2a infected in 2aLucNeo-25 cells; format: functional, organism-based, Hepacivirus hominis
[6] = tested on: Hepatitis C virus; assay: Anti-viral activity against HCV genotype 2a infected in Lunet-CD81 cells; format: functional, organism-based, Hepacivirus hominis

Compound: C[C@@]1(O)[C@H](O)[C@@H](CO)O[C@H]1c1csc2c(N)ncnc12
Activity [1]: inactive

Compound: C[C@@]1(O)[C@H](O)[C@@H](CO)O[C@H]1c1coc2c(=S)[nH]cnc12
Activity [1]: inactive

Compound: C[C@@]1(O)[C@H](O)[C@@H](CO)O[C@H]1n1cnc2c(N)ncnc21
pEC50 [2]: 6.52
pEC50 [3]: 6.64
pEC50 [4]: 6.52
pEC50 [5]: 5.84
pEC50 [6]: 6.52

pIC50 ([1]; Ava5, 72 h): 5.30
Compound: C[C@@]1(O)[C@H](O)[C@@H](COP(=O)(O)OP(=O)(O)OP(=O)(O)O)O[C@H]1c1coc2c(N)ncnc12

Compound: C[C@@]1(O)[C@H](O)[C@@H](CO)O[C@H]1c1coc2c(=O)[nH]c(N)nc12
Activity [1]: inactive

Compound: C[C@@]1(O)[C@H](O)[C@@H](CO)O[C@H]1c1coc2c(N)nc(N)nc12
Activity [1]: inactive

Compound: C[C@@]1(O)[C@H](O)[C@@H](CO)O[C@H]1c1c[nH]c2c(=O)[nH]c(N)nc12
Activity [1]: inactive

Compound: C[C@@]1(O)[C@H](O)[C@@H](CO)O[C@H]1c1coc2c(=O)[nH]cnc12
Activity [1]: inactive
